# Test results as given in ChEMBL document CHEMBL3769338, “Tricyclic phenothiazine and phenoselenazine derivatives as potential multi-targeting agents to treat Alzheimer's disease” (Medchemcomm, 2015).
# Activity calls are given as the source filed them. No cut-off for these calls is given here.
# Tests used:
# [1] = target: Amyloid-beta precursor protein (Homo sapiens) (UniProt P05067); assay: Inhibition of amyloid beta (1-42) self-induced aggregation (unknown origin) at 10 uM measured every 5 mins for 16 hrs by thioflavin T fluorescence method relative to control
# Amyloid-beta precursor protein (Homo sapiens), sequence (P05067 whole entry): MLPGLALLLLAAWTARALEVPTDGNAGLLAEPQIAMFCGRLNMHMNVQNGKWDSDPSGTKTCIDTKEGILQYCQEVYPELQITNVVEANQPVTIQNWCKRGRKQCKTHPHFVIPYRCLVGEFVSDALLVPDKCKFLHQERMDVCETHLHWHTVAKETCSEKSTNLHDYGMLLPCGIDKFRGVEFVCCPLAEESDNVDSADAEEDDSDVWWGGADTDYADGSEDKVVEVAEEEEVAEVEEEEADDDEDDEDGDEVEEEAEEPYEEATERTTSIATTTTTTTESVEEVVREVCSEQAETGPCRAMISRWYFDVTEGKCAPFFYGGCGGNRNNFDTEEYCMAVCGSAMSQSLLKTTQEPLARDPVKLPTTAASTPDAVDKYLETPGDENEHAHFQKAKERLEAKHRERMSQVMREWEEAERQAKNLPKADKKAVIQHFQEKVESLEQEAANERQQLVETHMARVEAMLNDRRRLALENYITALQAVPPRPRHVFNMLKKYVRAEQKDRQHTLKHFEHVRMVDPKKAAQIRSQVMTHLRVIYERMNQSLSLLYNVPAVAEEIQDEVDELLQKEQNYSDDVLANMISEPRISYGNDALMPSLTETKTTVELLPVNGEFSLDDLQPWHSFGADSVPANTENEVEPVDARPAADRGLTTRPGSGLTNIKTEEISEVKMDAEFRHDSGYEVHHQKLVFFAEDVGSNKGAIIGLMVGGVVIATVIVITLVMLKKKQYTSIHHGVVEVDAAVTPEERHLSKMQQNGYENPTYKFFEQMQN
# [2] = target: Amyloid-beta precursor protein (Homo sapiens) (UniProt P05067); assay: Inhibition of amyloid beta (1-42) self-induced aggregation (unknown origin) at 5 uM measured every 5 mins for 16 hrs by thioflavin T fluorescence method relative to control
# [3] = target: Amyloid-beta precursor protein (Homo sapiens) (UniProt P05067); assay: Inhibition of amyloid beta (1-42) self-induced aggregation (unknown origin) at 1 uM measured every 5 mins for 16 hrs by thioflavin T fluorescence method relative to control
# [4] = target: Amyloid-beta precursor protein (Homo sapiens) (UniProt P05067); assay: Inhibition of amyloid beta (1-42) self-induced aggregation (unknown origin) at 25 uM measured every 5 mins for 16 hrs by thioflavin T fluorescence method relative to control
# [5] = target: Acetylcholinesterase (Homo sapiens, UniProt P22303); assay: Inhibition of human AChE using acetylthiocholine iodide as substrate preincubated for 5 mins followed by substrate addition measured after 60 to 300 sec by Ellman's method
# Acetylcholinesterase, sequence (P22303 whole entry): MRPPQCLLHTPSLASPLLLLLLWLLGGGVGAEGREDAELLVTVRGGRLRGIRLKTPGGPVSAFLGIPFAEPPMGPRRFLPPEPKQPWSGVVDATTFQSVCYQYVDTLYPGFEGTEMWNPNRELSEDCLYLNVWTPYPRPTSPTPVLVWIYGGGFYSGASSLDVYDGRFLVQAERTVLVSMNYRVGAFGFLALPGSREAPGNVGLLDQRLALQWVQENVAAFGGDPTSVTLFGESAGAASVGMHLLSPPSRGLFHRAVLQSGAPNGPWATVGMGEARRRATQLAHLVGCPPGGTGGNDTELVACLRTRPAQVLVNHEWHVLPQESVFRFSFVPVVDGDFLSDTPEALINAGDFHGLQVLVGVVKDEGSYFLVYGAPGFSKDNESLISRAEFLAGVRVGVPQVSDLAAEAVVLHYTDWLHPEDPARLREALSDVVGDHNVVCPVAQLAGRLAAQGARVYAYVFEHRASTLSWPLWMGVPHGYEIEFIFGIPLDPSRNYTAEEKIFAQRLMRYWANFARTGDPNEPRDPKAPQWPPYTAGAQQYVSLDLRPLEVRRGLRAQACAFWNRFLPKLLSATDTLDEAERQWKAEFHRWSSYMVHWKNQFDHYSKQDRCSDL
# [6] = target: T1, Cholinesterase (Homo sapiens, UniProt P06276)
# T1 sequence (P06276 whole entry): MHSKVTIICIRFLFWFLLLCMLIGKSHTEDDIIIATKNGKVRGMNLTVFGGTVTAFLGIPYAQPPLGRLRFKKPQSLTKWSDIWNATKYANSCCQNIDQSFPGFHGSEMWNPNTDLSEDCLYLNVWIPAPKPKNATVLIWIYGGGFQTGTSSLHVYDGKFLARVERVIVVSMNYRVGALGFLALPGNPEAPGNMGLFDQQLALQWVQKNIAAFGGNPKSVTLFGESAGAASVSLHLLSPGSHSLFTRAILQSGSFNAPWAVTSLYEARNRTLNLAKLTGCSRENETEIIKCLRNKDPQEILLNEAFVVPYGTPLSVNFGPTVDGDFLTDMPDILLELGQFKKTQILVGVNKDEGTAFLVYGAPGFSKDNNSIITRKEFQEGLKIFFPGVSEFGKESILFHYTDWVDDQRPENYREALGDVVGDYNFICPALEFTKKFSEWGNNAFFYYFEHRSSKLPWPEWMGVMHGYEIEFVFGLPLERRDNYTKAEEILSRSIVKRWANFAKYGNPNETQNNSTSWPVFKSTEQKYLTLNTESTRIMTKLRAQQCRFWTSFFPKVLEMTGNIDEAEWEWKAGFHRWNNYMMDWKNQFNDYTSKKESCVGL
# Description: Inhibition of human BuChE using S-butyrylthiocholine iodide as substrate preincubated for 5 mins followed by substrate addition measured after 60 to 300 sec by Ellman's method
# [7] = target: T1, Cholinesterase; assay: Potency index, ratio of galantamine IC50 to compound IC50 for inhibition of human BuChE
# [8] = Antioxidant activity assessed as DPPH free radical scavenging activity at 50 uM incubated for 60 mins in dark relative to control; format: physicochemical; conditions: 1 h
# [9] = target: Amyloid-beta precursor protein (Homo sapiens) (UniProt P05067); assay: Inhibition of amyloid beta (1-42) self-induced aggregation (unknown origin) measured every 5 mins for 16 hrs by thioflavin T fluorescence method
# [10] = Cytotoxicity against human SH-SY5Y cells assessed as cell viability at 50 uM after 24 hrs by MTT assay relative to untreated control; format: cell-based; conditions: read-out: Activity
Structure (SMILES),inhibition [1],inhibition [2],inhibition [3],inhibition [4],IC50 [5] [µM],IC50 [6] [µM],Ratio IC50 [7],inhibition (INH) [8] [%],inhibition [9],"viability at 24 h, 50 µM [10] [%]"
O=S(=O)(O)c1cc(S(=O)(=O)O)c2c(/N=N/c3ccccc3)c(O)ccc2c1,31%,20.4%,8.6%,57.2%,,,,,,
O=C(c1ccccc1)N1c2ccccc2Sc2ccccc21,,,,,8,> 100,,,,
COc1cccc(C(=O)N2c3ccccc3[Se]c3ccc(Cl)cc32)c1,,,,,5.9,19.3,,,,
O=C(CCc1ccccc1)N1c2ccccc2Sc2ccc(Cl)cc21,,,,,7.9,5,,,,
COc1cccc(C(=O)N2c3ccccc3[Se]c3ccccc32)c1,,,,,6.2,9.6,,,,
c1ccc2c(c1)Nc1ccccc1S2 [PHENOTHIAZINE],59.1%,37.2%,18.3%,62%,7.3,5.8,11,92.1,Dose-dependent effect,63.3
COc1cccc(C(=O)N2c3ccccc3Sc3ccccc32)c1,,,,,6.2,25.5,,,,
COc1ccc(C(=O)N2c3ccccc3Sc3ccccc32)cc1,,,,,6.3,53,,,,
O=C(Cc1ccccc1)N1c2ccccc2[Se]c2ccccc21,,,,,6.4,11,,,,
COc1ccc(C(=O)N2c3ccccc3Sc3ccccc32)cc1OC,inactive,inactive,inactive,inactive,5.8,45,,44.3,,63.3
COc1ccc(C(=O)N2c3ccccc3[Se]c3ccc(Cl)cc32)cc1OC,9.1%,7.9%,8.4%,5.9%,6.2,5.7,,38.3,,76
Clc1ccc2c(c1)Nc1ccccc1[Se]2,25.1%,18.5%,14.5%,45%,6.3,4.7,,73.2,,43
O=C(Cc1ccccc1)N1c2ccccc2[Se]c2ccc(Cl)cc21,,,,,6.5,5,,,,
Clc1ccc2c(c1)Nc1ccccc1S2,33.7%,22%,10.3%,60.8%,7.4,19.2,,76.4,,63.3
O=C(Cc1ccccc1)N1c2ccccc2Sc2ccc(Cl)cc21,,,,,7.5,3.6,,,,
c1ccc2c(c1)Nc1ccccc1[Se]2,30.7%,24.1%,16.3%,45.6%,5.6,3,22,84.4,Dose-dependent effect,76

Structure (SMILES),inhibition [1],inhibition [2],inhibition [3],inhibition [4],IC50 [5] [µM],IC50 [6] [µM],Ratio IC50 [7],inhibition (INH) [8] [%],inhibition [9],"viability at 24 h, 50 µM [10] [%]"
COc1ccc(C(=O)N2c3ccccc3[Se]c3ccccc32)cc1,,,,,4.6,11.1,,,,
COc1cccc(C(=O)N2c3ccccc3Sc3ccc(Cl)cc32)c1,,,,,4.6,30.8,,,,
O=C(Cc1ccccc1)N1c2ccccc2Sc2ccccc21,,,,,7.4,38.3,,,,
O=C(c1ccccc1)N1c2ccccc2Sc2ccc(Cl)cc21,,,,,9.9,9.3,,,,
O=C(CCc1ccccc1)N1c2ccccc2[Se]c2ccccc21,,,,,6.7,38,,,,
COc1ccc(C(=O)N2c3ccccc3Sc3ccc(Cl)cc32)cc1,,,,,5.9,5.3,,,,
COc1ccc(C(=O)N2c3ccccc3[Se]c3ccccc32)cc1OC,8.7%,5.7%,6.3%,11.1%,5.1,9.1,,39,,76
O=C(c1ccccc1)N1c2ccccc2[Se]c2ccccc21,,,,,5.4,22.7,,,,
O=C(CCc1ccccc1)N1c2ccccc2[Se]c2ccc(Cl)cc21,,,,,6.3,40,,,,
O=C(c1ccccc1)N1c2ccccc2[Se]c2ccc(Cl)cc21,,,,,6,3.8,,,,
Cc1c(C)c2c(c(C)c1O)CCC(C)(C(=O)O)O2 (configuration not stated) [TROLOX],,,,,,,,99.2,,
O=C(CCc1ccccc1)N1c2ccccc2Sc2ccccc21,,,,,7.1,51,,,,
COc1ccc(C(=O)N2c3ccccc3[Se]c3ccc(Cl)cc32)cc1,,,,,5.8,4.9,,,,
COc1ccc(C(=O)N2c3ccccc3Sc3ccc(Cl)cc32)cc1OC,6.5%,4.5%,6.2%,5.9%,6.4,32.6,,46.5,,63.3
O=c1c2ccccc2[se]n1-c1ccccc1 [EBSELEN],,,,,6.2,4.6,,34.7,,53.9
